Measured values as given in patent US6537967B1, “Pentamer peptide amide, ALGPGNH2, which inhibits viral infectivity and methods of use thereof” (Tripep AB, priority 2001, dated 2003).
Peptide text beside a SMILES is read from it.

Experiments:
Assay type in all cases: cell-based
HIV-1 SF-2 = HIV-1 SF-2 infectivity assay in H9 cells (RT activity and p24 in culture supernatant); conditions: 25 TCID50, FIG. 1
Description: (§1) In this example, the methods that were used to analyze the ability of ALGPG-NH2 (SEQ. ID. NO.: 1) to inhibit HIV- l replication are disclosed. HIV-1 SF-2 stock was prepared from HUT78 cells and two clinical isolates were prepared from donor's peripheral blood mononuclear cells (PBMC). The virus infected cells were propagated and maintained in RPMI 1640 medium supplemented with 10% heat inactivated fetal bovine serum (GIBCO Laboratories) with penicillin and streptomycin (100 μg/ml each). PBMCs were purified by Ficoll-Hypaque density gradient centrifugation and stimulated with phytohemagglutinin (KEBO laboratories, Sweden) for three days in RPMI 1640 medium supplemented with 10% heat inactivated fetal bovine serum (GIBCO Laboratories) with penicillin and streptomycin (100 μg/ml each).
Approximately 10^5 of H9 cells were infected with HIV-1 SF-2, obtained as described above, at 25 TCID50 to test the inhibitory effect of ALGPG-NH2 (SEQ. ID. NO.: 1). The H9 cells were resuspended with or without ALGPG-NH2 (SEQ. ID. NO.: 1) (at approximately 5 μM, 20 μM, and […]) in 1 ml of RPMI 1640 medium supplemented with 10% (v/v) heat-inactivated fetal bovine serum (FBS), penicillin (100 μ/ml), and streptomycin (100 u/ml), all available through GIBCO, and Polybrene (2 μg/ml), available through Sigma. Thereafter, viruses were added at 25 TCID50 in a volume of 20-30 μl. Cells were incubated with virus at 37° C. for 1 hr then pelleted at 170×g for 7 minutes. The cells were then washed three times in RPMI medium with or without peptides at room temperature and pelleted at 170×g for 7 minutes, as above. […]
Culture supernatants were collected and analyzed when the medium was changed at 4, 7, 10, and 14 days post infection. […] The amount of RT was determined with the aid of a regression line of standards. The presence of p24 in the supernatants was determined using a commercially available HIV p24 antigen detection kit (ELISA kit from Abbott Laboratories, North Chicago, U.S.A.).

HIV-1 clinical isolate 1 = HIV-1 clinical isolate 1 infectivity assay in PBMC (p24 in culture supernatant); conditions: FIG. 2
Description: as §1
(§2) The infectivity assays of the HIV-1 clinical isolates were performed, as above, in PBMC, which were stimulated for three days with 2.5 μg/ml of phytohemagglutinin (DIFCO, New Jersey). Cells were cultured in RPMI 1640 medium supplemented with 10% (v/v) heat-inactivated fetal bovine serum (FBS), penicillin (100 u/ml), and streptomycin (100 u/ml), all available through GIBCO, and Polybrene (2 μg/ml), available through Sigma. […] The production of p24 in the culture supernatent was monitored using a commercially available HIV p24 antigen detection kit (ELISA kit from Abbott Laboratories, North Chicago, U.S.A.).

HIV-1 clinical isolate 2 = HIV-1 clinical isolate 2 infectivity assay in PBMC (p24 in culture supernatant); conditions: FIG. 2
Description: as §1, §2

CC(C)C[C@H](NC(=O)[C@H](C)N)C(=O)NCC(=O)N1CCC[C@H]1C(=O)NCC(N)=O [ALGPG-NH2] (H-ALGPG-NH2; N-terminus assumed)
inhibition of HIV-1 SF-2 infection (HIV-1 SF-2; 5 μM peptide amide): approximately 50%
inhibition of HIV-1 SF-2 infection (HIV-1 SF-2; 20 μM peptide amide): almost complete
inhibition of HIV-1 SF-2 infection (HIV-1 SF-2; 100 μM peptide amide): almost complete
inhibition of isolate 1 (HIV-1 clinical isolate 1; 20 μM): approximately 20%
inhibition of isolate 1 (HIV-1 clinical isolate 1; 100 μM): almost complete
inhibition of isolate 2 (HIV-1 clinical isolate 2; 20 μM): approximately 50%
inhibition of isolate 2 (HIV-1 clinical isolate 2; 100 μM): almost complete
